Source: paper PMC11545999, “Angular-Substituted [1,4]Thiazino[3,4-a]Isoquinolines: Biological Evaluation and In Silico Studies on DPP-IV Inhibition” (International Journal of Molecular Sciences, 2024)

target: T1, DPP-IV (Homo sapiens, UniProt P27487); test: fluorogenic AMC substrate cleavage assay (SensoLyte AMC DPP-IV Assay Kit); assay type: biochemical
T1 construct: gene DPP4
T1 sequence (P27487 39-766): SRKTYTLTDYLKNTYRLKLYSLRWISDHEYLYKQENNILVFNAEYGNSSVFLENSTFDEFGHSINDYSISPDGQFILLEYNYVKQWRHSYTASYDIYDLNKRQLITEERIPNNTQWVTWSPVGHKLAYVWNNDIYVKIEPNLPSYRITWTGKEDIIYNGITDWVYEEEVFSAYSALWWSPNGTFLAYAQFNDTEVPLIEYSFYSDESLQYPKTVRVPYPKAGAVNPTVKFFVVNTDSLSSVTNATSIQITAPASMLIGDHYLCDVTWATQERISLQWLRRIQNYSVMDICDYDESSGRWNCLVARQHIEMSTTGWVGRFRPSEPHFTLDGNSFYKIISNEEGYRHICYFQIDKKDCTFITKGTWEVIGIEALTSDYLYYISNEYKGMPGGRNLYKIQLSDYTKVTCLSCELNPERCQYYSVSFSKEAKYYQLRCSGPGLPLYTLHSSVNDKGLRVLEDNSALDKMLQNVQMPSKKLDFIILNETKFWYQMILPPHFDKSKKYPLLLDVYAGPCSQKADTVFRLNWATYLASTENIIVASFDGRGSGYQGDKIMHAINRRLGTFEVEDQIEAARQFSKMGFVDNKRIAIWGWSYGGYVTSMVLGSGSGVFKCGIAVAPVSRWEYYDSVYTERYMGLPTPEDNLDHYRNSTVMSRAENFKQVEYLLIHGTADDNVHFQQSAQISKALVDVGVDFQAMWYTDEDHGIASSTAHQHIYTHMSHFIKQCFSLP

Compared with `COc1cc2c(cc1OC)[C@@]1(c3ccc(C(F)(F)F)cc3)[C@@H](C(=O)O)SCC(=O)N1CC2` (relative stereo) [4f], `COc1cc2c(cc1OC)[C@@]1(c3ccc(F)cc3)[C@@H](C(=O)O)SCC(=O)N1CC2` (relative stereo) [4g] is 45-fold lower in IC50: 15.9 µM for the first, 0.35 µM for the second.

With `COc1cc2c(cc1OC)C1C(C(=O)O)SCC(=O)N1CC2` (stereo not drawn) [4a] the IC50 was 41.1 µM.
